Assays:
Assay type in all cases: cell-based
P2X7 [1] = biological target: T1, P2X7 (Homo sapiens (Human), UniProt Q99572); experiment: Ca2+ flux (FLIPR) in 1321N1 cells expressing recombinant human P2X7 channel; details: 250 μM BzATP, Calcium-4 dye
Experimental: (§1) 1321N1 cells expressing the recombinant human, rat or mouse P2X7 channel was cultured in HyQ DME/(HyClone/Dulbecco's Modified Eagle Medium) high glucose supplemented with 10% Fetal Bovine Serum (FBS) and appropriate selection marker. Cells were seeded at a density of 25000 cells/well (96-well clear bottom black walled plates) in 100 μl volume/well. On the day of the experiment, cell plates were washed with assay buffer, containing (in mM): 130 NaCl, 2 KCl, 1 CaCl2, 1 MgCl2, 10 HEPES, 5 glucose; pH 7.40 and 300 mOs. After the wash, cells were loaded with the Calcium-4 dye (Molecular Device) and incubated in the dark for 60 minutes. Test compounds were prepared at 250× the test concentration in neat DMSO. Intermediate 96-well compound plates were prepared by transferring 1.2 μL of the compound into 300 μL of assay buffer. A further 3× dilution occurred when transferring 50 μL/well of the compound plate to 100 μL/well in the cell plate. Cells were incubated with test compounds and dye for 30 minutes. […] The fluorescence change was measured 180 seconds after adding the agonist.

rat P2X7 = rat P2X7 (Rattus norvegicus (Rat), UniProt Q64663); experiment: Ca2+ flux (FLIPR) in 1321N1 cells expressing recombinant rat P2X7 channel; details: 250 μM BzATP, Calcium-4 dye
Experimental: as §1

P2X7 [2] = biological target: T1, P2X7; experiment: P2X7 antagonism in human PBMCs (IL-1β release, ELISA); details: test compound 10 μM, IL-1β release in human PBMCs, LPS 30 ng/ml + Bz-ATP 0.5 mM, read-out: PBMC 10 μM (% control)
Experimental: Human blood was collected using a blood donor program. […] Cells were incubated for an additional 1.5 hours. […] In Table 2, when the data cell has been left blank, it is intended to mean that the compound was not tested in that assay.

rat P2X7, sequence (Q64663 whole entry): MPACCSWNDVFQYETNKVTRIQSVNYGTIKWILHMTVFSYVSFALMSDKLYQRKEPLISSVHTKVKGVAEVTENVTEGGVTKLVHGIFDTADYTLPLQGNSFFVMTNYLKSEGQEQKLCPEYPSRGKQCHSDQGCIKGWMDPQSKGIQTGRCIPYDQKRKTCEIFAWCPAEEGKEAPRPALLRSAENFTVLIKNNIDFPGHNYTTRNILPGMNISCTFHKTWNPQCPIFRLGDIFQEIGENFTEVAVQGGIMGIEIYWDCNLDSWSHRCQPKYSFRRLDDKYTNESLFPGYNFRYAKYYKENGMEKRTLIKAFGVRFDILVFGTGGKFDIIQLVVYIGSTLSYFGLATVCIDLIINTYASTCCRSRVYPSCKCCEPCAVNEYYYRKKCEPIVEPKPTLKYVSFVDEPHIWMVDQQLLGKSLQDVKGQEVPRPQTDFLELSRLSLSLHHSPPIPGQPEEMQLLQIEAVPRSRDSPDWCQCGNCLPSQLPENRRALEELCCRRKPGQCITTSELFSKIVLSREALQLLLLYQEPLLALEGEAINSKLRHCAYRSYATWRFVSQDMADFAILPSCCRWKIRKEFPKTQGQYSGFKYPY
T1 sequence (Q99572 whole entry): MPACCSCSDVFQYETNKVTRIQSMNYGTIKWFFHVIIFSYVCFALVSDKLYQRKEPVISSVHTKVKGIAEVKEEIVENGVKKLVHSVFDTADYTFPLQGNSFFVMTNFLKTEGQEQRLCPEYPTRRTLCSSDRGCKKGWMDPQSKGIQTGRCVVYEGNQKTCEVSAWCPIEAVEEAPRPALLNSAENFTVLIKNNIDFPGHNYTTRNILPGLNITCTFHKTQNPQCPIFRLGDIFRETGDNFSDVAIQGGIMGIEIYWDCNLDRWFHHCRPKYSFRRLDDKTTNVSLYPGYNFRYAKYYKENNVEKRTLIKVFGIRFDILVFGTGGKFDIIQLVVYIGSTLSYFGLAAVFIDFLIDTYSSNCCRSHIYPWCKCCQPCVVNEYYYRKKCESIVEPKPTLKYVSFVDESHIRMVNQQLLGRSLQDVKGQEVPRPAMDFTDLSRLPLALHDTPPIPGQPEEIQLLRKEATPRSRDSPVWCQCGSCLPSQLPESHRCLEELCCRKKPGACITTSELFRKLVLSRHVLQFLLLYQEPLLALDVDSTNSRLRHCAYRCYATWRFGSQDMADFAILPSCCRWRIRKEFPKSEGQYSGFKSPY

| Compound | IC50 (P2X7 [1]) | IC50 (rat P2X7) | remaining activity at 10 µM (P2X7 [2]) |
| --- | --- | --- | --- |
| Cc1nc2c(c(-c3ccn[nH]3)n1)C[C@H](C)N(C(=O)c1cccc(C(F)(F)F)c1C)C2 (single isomer, unassigned) [Example 79, (S*)-(2,6-dimethyl-4-(1H-pyrazol-5-yl)-5,6-dihydropyrido[3,4-d]pyrimidin-7(8H)-yl)(2-methyl-3-(trifluoromethyl)phenyl)methanone] | 3240 nM | – | – |
| Cc1nc2c(c(-c3ccn[nH]3)n1)C[C@@H](C)N(C(=O)c1ccc(Cl)cc1F)C2 (single isomer, unassigned) [Example 88, (R*)-(4-chloro-2-fluorophenyl)(2,6-dimethyl-4-(1H-pyrazol-5-yl)-5,6-dihydropyrido[3,4-d]pyrimidin-7(8H)-yl)methanone] | 11000 nM | – | – |
| Cc1nc2c(c(-c3ccn[nH]3)n1)C[C@@H](C)N(C(=O)c1ccc(F)cc1F)C2 (single isomer, unassigned) [Example 94, (R*)-(2,4-difluorophenyl)(2,6-dimethyl-4-(1H-pyrazol-5-yl)-5,6-dihydropyrido[3,4-d]pyrimidin-7(8H)-yl)methanone] | > 10000 nM | > 10000 nM | – |
| COCCn1ccc(-c2nc(C)nc3c2C[C@H](C)N(C(=O)c2cccc(C(F)(F)F)c2Cl)C3)n1 (single isomer, unassigned) [Example 127, (S*)-(2-chloro-3-(trifluoromethyl)phenyl)(4-(1-(2-methoxyethyl)-1H-pyrazol-3-yl)-2,6-dimethyl-5,6-dihydropyrido[3,4-d]pyrimidin-7(8H)-yl)methanone] | > 10000 nM | > 10000 nM | – |
| O=C(c1cccc(Cl)c1Cl)N1CCc2c(ncnc2-c2cn[nH]c2)C1 [Example 4, 7-[(2,3-Dichlorophenyl)carbonyl]-4-(1H-pyrazol-4-yl)-5,6,7,8-tetrahydropyrido[3,4-d]pyrimidine] | 388 nM | 12500 nM | – |
| Nc1nc2c(c(-c3ccccc3)n1)CCN(C(=O)c1cccc(Cl)c1Cl)C2 [Example 29, 7-[(2,3-Dichlorophenyl)carbonyl]-4-phenyl-5,6,7,8-tetrahydropyrido[3,4-d]pyrimidin-2-amine] | 796 nM | – | – |
| Cc1nc2c(c(-c3ccccc3)n1)CCN(C(=O)c1cccc(C(F)(F)F)c1Cl)C2 [Example 32, 7-{[2-Chloro-3-(trifluoromethyl)phenyl]carbonyl}-2-methyl-4-phenyl-5,6,7,8-tetrahydropyrido[3,4-d]pyrimidine] | 265 nM | – | – |
| Cc1nc2c(c(-c3ccn[nH]3)n1)CC(C)N(C(=O)c1cccc(Cl)c1Cl)C2 (centres unmarked) [Example 67, (2,3-dichlorophenyl)(2,6-dimethyl-4-(1H-pyrazol-5-yl)-5,6-dihydropyrido[3,4-d]pyrimidin-7(8H)-yl)methanone] | – | 14.5 nM | -1.3% |
| Cc1nc2c(c(-c3ccnn3C)n1)CC(C)N(C(=O)c1cccc(C(F)(F)F)c1Cl)C2 (centres unmarked) [Example 73, (2-chloro-3-(trifluoromethyl)phenyl)(2,6-dimethyl-4-(1-methyl-1H-pyrazol-5-yl)-5,6-dihydropyrido[3,4-d]pyrimidin-7(8H)-yl)methanone] | – | 17.8 nM | 2.2% |
| CCc1nc2c(c(-c3ccn[nH]3)n1)CC(C)N(C(=O)c1ccc(Cl)c(F)c1Cl)C2 (centres unmarked) [Example 104, (2,4-dichloro-3-fluorophenyl)(2-ethyl-6-methyl-4-(1H-pyrazol-5-yl)-5,6-dihydropyrido[3,4-d]pyrimidin-7(8H)-yl)methanone] | – | 23.7 nM | -1.3% |
| CC1c2ncnc(-c3ccn[nH]3)c2CCN1C(=O)c1cccc(C(F)(F)F)c1Cl (centres unmarked) [Example 112, (2-chloro-3-(trifluoromethyl)phenyl)(8-methyl-4-(1H-pyrazol-5-yl)-5,6-dihydropyrido[3,4-d]pyrimidin-7(8H)-yl)methanone] | – | 16 nM | -1.8% |
| CC1c2ncnc(-c3ccn[nH]3)c2CCN1C(=O)c1ccc(F)c(Cl)c1Cl (centres unmarked) [Example 118, (2,3-dichloro-4-fluorophenyl)(8-methyl-4-(1H-pyrazol-5-yl)-5,6-dihydropyrido[3,4-d]pyrimidin-7(8H)-yl)methanone] | – | 21 nM | -0.6% |
